From patent US20250204541A1, “GAS PHASE TREATMENT OF PRODUCE” (priority 2022, published 2025)

What was measured:
[1] = tested on: Colletotrichum gloeosporioides (Cg); assay: Antifungal activity of vapor against Colletotrichum gloeosporioides in avocados; type: in vivo; conditions: Example 22, 30 minutes vapor of 62.5-500 μL on filter paper disc, assessed on day 5
avocados = assay: Durometer shore (ripening/firmness) of treated avocados; type: in vivo; conditions: for average increase of durometer shore over the uninfected and untreated avocados: Example 22
Method: Example 9. The antifungal activity of a range of AITC and carvacrol vapor exposure times was tested against Cg in avocados. To measure the effect of the various treatments on ripening, durometer shore was taken after 7 days of incubation at ambient temperature and high humidity. All samples were wounded by removing the stem and infected by dispensing 1000 Cg spores suspended in 10 μL of water in the wound. The test groups consisted of avocados that were: infected and left untreated on the benchtop; infected and left untreated under a fume hood; exposed to the vapor of 3 mL of AITC in a Petri dish for 24 hours, 48 hours, and 72 hours; and exposed to the vapor of 3 mL of carvacrol in a Petri dish for 72 hours. FIG. 11 quantifies the infection results. […] All exposure times to AITC vapor reduced the incidence of Cg mold compared to the untreated samples. A 24 hour AITC exposure reduced the incidence of Cg mold by 90%. A 48 hour AITC exposure reduced the incidence of Cg mold by 97%. A 72 hour AITC exposure reduced the incidence of Cg mold by 83%.
Example 10. The antifungal activity of a range of AITC vapor exposure times were tested against Cg in avocados. To measure the effect of the various treatments on ripening, durometer shore was taken after 6 days of incubation at ambient temperature and high humidity. All samples were wounded by removing the stem and infected by dispensing 1000 Cg spores suspended in 10 μL of water in each wound. The test groups consisted of avocados that were: infected and left untreated on the benchtop; infected and left untreated in a fume hood; exposed to the vapor of 3 mL of AITC in a Petri dish for 24 hours, 48 hours, and 72 hours. FIG. 13 quantifies the infection results. […] All exposure times to AITC vapor reduced the incidence of Cg mold compared to the untreated samples.
Example 21. The antifungal activity of avocados exposed to AITC vapor and prochloraz was tested against Cg in avocados. To measure the effect of the various treatments on ripening, durometer shore was taken after 5 days of incubation at ambient temperature (about 20° C. to about 25° C.) and high humidity (about 88% relative humidity to about 93% relative humidity). All samples were wounded by removing the stem and infected by dispensing 1000 Cg spores suspended in 10 μL of water in the wound. Exposure to vapor was done by placing the avocados in an airtight container, dispensing AITC onto Whatman filter paper discs, suspending the discs in front of a battery-powered fan, closing the container and incubating the avocados for 30 minutes. After vapor exposure, the avocados were left at ambient temperature, high humidity, and assessed for Cg mold on day 5. Treatment groups consisted of avocados that were: exposed for 30 minutes to the vapor of 125 μL of AITC disposed on a filter paper disc; dipped in a solution of 0.1 g/L of prochloraz and placed to dry on a rack in front of a fan for 30 min; infected and left untreated; and uninfected and untreated. […] To prepare the 0.1 g/L of prochloraz, 10 mg of prochloraz was mixed with 10 mL of ethanol and 90 mL of water. […] A 24 hour AITC exposure reduced the incidence of Cg mold by 90%. […] The mean shore value for the untreated avocados was 28.8 (standard deviation (SD)=10.8). The mean shore value for the infected avocados was 47.3 (SD=11.8). The mean shore value of the positive control, prochloraz treated avocados was 44.3 (SD=14.7). The mean shore value of the AITC treated avocados was 61.1 (SD=10.5).
Durometer Shore Measurement: A Fruit Hardness Tester—HPE III Fff w/Sphere Ø 5.0 mm Test Anvil is used for the measurements. The Operating Procedure is as follows: • 1) At room temperature and 1 atm pressure, switch on the measuring device and press the hull or sleeve against the specimen so that the contact surface of the pressure plate rests on the fruit. […]

C=CCN=C=S [AITC, allyl isothiocyanate]
incidence of Cg mold [1]: reduced the incidence of Cg mold compared to the untreated samples, the samples treated with coating agent, and the prochloraz treated sample | average increase of durometer shore over the untreated avocados (avocados; Example 9, Cg-infected avocados, all AITC treatments (3 mL, 24, 48, 72 hours), after 7 days, P value<0.0001): 20.3 shore | average increase of durometer shore over the infected avocados (avocados; Example 10, Cg-infected avocados, all AITC treatments (3 mL, 24, 48, 72 hours), after 6 days, P value<0.005): 15.4 shore | higher durometer shore than the untreated avocados (avocados; Example 21, Cg-infected avocados, 125 μL, 30 minutes, after 5 days): more than 30 shore | mean shore value (avocados; Example 21, Cg-infected avocados, after 5 days, AITC 125 μL vapor 30 minutes, prochloraz 0.1 g/L dip): 61.1 (SD=10.5) shore | average increase of durometer shore over the uninfected and untreated avocados (avocados; Cg-infected avocados, 250 μL, 30 minutes, after 5 days, P value=0.0016): about 10 shore | average increase of durometer shore over the uninfected and untreated avocados (avocados; Cg-infected avocados, 500 μL, 30 minutes, after 5 days, P value<0.0001): about 28.5 shore | average increase of durometer shore over the untreated avocados (avocados; Example 23, avocados, after 11 days, coating agent 40 g/L dip, AITC vapor of 500 μL, P value<0.0001): 22.5 shore
